Experimental data published in patent US20160374908A1, “SKIN CARE COMPOSITION AND METHODS OF USING THE SAME” (The Procter & Gamble Company, priority 2015, published 2016).

Assays:
[1] = test system: HMGB1 released from keratinocytes exposed to UVB; assay: In Vitro UV Stress Test (HMGB1 ELISA); assay type: cell-based, human; conditions: for amount of HMGB1 released compared to untreated UVB exposed cells: UVB exposed keratinocytes, 0.001 w/v %
Method: Human neonatal keratinocytes (available from Thermo) were placed in each well of 4 12-well plates. Each well also contained 2 ml of EPILIFE brand keratinocyte medium. The plates were incubated at 37° C. in a CO2 incubator until cell confluency reached 70%. At this point, the cells, except for the negative control, were exposed to 15 mJ/cm^2 UVB (i.e., UV radiation with a wavelength of from 315-280 nm) in a BIO-SUN brand UV irradiating system (available from Vilber Lourmat, France). After UVB exposure, the keratinocyte medium in each well was replaced with an appropriate medium (i.e., niacinamide medium, nicotinamide riboside medium or a control medium) to produce the test plates. The test plates were incubated for 24 hours at 37° C. in a CO2 incubator, after which the medium in each cell was removed and the HMGB1 level measured using a conventional HMGB1 ELISA kit (REF #ST51011, available from IBL International, Canada) according to the manufacturer's instructions. The test media were made by adding either niacinamide or nicotinamide riboside to EPILIFE brand keratinocyte medium to produce a 0.001 w/v % solution. The control medium was unmodified keratinocyte medium.

[2] = test system: human neonatal keratinocytes; assay: Melanosome Uptake Assay; assay type: cell-based
Method: Carboxyfluorescein diacetate (“CFDA”) (available from Sigma, St. Louis, Mo.) labeled melanosomes were prepared by incubating CFDA dye in SKMEL-188 culture cells (available from Sloan Kettering Institute) for 2 days at 37° C. in a THERMO SCIENTIFIC FORMA brand CO2 incubator (available from Fisher Scientific, Waltham, Mass.). On day 3 of the test, melansomes were isolated from SKMEL-188 cells by step density centrifugation with sucrose solutions layered with different densities, which is well known in the art. Melanosomes were taken from the 1.6 M-2.0 M sucrose layers. The isolated melanosomes were placed in each well of a 6-well plate along with human neonatal keratinocytes (available from Thermo) (approximately 50,000 keratinocytes/well). 2 ml of the appropriate medium (i.e., the test composition, the positive control or the vehicle control) was added to each of the wells to produce […] (i.e., 3 replicates of each of three composition tested). The test composition was made by adding nicotinamide riboside chloride powder (available from Chromadex, Irvine, Calif.) to EPILIFE brand keratinocyte medium to produce a solution of 0.0025 w/v % nicotinamide riboside. The positive control was made by adding niacinamide to EPILIFE brand keratinocyte medium to produce a solution of 0.0025 w/v % niacinamide. Unmodified keratinocyte medium was used as a vehicle control. The resulting test plates were incubated for two days in EPILIFE brand keratinocyte medium. On day 6 of the test, the keratinocytes were detached from the plates using trypsin and fluorescent-label counted by flow cytometry using an LSRFortessa brand flow cytometer (available from Becton Dickinson, NJ). The percentage of cells that had fluorescence (from CFDA label) was used as a metric to measure incorporation of melanosome uptake. Keratinocytes containing detectable levels of CFDA were counted as a fraction of all keratinocytes passing through the flow cytometer (indicated as % uptake in Table 2). The higher the percentage, the higher level of melanosome uptake into the keratinocytes.

[3] = test system: pigmented spots in facial skin; assay: Oral nicotinamide riboside, appearance of pigmented spots after cessation of the treatment period; assay type: in vivo; conditions: oral composition
Excerpt: In some instances, the method herein includes identifying a target portion of facial skin in need of treatment and orally ingesting a safe and effective amount of nicotinamide riboside over the course of a multi-day, or multi-week, or multi-month, or multi-year treatment period. Nicotinamide riboside may be incorporated into a suitable oral composition. The target portion of facial skin is any portion of facial skin (e.g., periorbital, cheek, chin, perioral, nose, forehead, etc.) where improvement in the appearance of skin is desired (e.g., reduction in size and/or increase in lightness of hyperpigmented spot). […] In this way, the present compositions may be used as a preventative measure for skin pigmentation disorders. The oral composition may be ingested one time per day, two times per day, three times per day (e.g., around each meal), four times per day or more during the treatment period. The daily dosage of nicotinamide riboside may be greater than 100 mg, preferably greater than 250 mg, more preferably greater than 300 mg, most preferably greater than 400 mg or 500 mg. The weekly dosage may be greater than 2100 mg/week, 2800 mg/week, or 3500 mg/week. The daily dosage may be provided in a single unit dosage form (e.g., a single pill, capsule or tablet) or may be provided in smaller unit dosage forms if the oral composition is intended to be taken more than once per day. […]

Compound: NC(=O)c1ccc[n+]([C@@H]2O[C@H](CO)[C@@H](O)[C@H]2O)c1.[Cl-] [Nicotinamide Riboside Chloride, nicotinamide riboside chloride]
- HMGB1 Released ([1]; UV exposure 15 mJ/cm^2 UVB, 0.001% in medium, 24 hours): 11.5 pg/mL

Compound: Nicotinamide riboside
- rate of melanosome uptake compared to the vehicle control ([2]; 0.0025 w/v %): increase the rate of melanosome uptake
- % Uptake ([2]; 0.0025 w/v % in keratinocyte medium, fraction of keratinocytes with detectable CFDA-labeled melanosomes, flow cytometry): 67%
- Rate of Melanosome Uptake Versus Control ([2]; 0.0025 w/v %, vehicle control = 100%): 186%
- amount of HMGB1 released compared to untreated UVB exposed cells [1]: released less HMGB1
- time after cessation of the treatment period to regression to baseline in the appearance of the pigmented spots [3]: ≤ 2 weeks

Compound: NC(=O)c1cccnc1 [Niacinamide, niacinamide, reference compound]
- rate of melanosome uptake compared to the vehicle control ([2]; 0.0025 w/v %): inhibit the rate of melanosome uptake
- amount of HMGB1 released compared to untreated UVB exposed cells [1]: no significant effect
